Experimental data from patent publication US20120202690A1, “HERBICIDAL COMPOUNDS” (SYNGENTA LIMITED, priority 2009, published 2012).

What was measured:
Type in all cases: in vivo
[1] = test system: Amaranthus retroflexus (AMARE); experiment: Post-emergence biological efficacy, glasshouse, 500 or 1000 g/ha, evaluated after 13 days (100=total damage to plant; 0=no damage to plant)
Method: (§1) Seeds of Alopecurus myosuroides (ALOMY), Setaria faberi (SETFA), Echinochloa […]), Solanum nigrum (SOLNI), Amaranthus retroflexus (AMARE) and Ipomoea hederaceae (IPOHE) were sown in standard soil in pots. […] The test plants were then grown on under controlled conditions in a glasshouse (at 24/16° C., day/night; 14 hours light; 65% humidity) and watered twice daily. […]

[2] = test system: Echinochloa crusgaffi (ECHCG); experiment: as above
Method: as §1

[3] = test system: Ipomoea hederaceae (IPOHE); experiment: as above
Method: as §1

Solanum nigrum (SOLNI) [4] = experiment: as above
Method: as §1

[5] = test system: Alopecurus myosuroides (ALOMY); experiment: as above
Method: as §1

Setaria faberi (SETFA) [6] = experiment: as above
Method: as §1

[7] = test system: Amaranthus retroflexus (AMARE); experiment: Pre-emergence biological efficacy, glasshouse, 1000 g/ha, evaluated after 13 days (100=total damage to plant; 0=no damage to plant)
Method: (§2) Seeds of Alopecurus myosuroides (ALOMY), Setaria faberi (SETFA), Echinochloa crus-galli (ECHCG), Solanum nigrum (SOLNI), Amaranthus retroflexus (AMARE) and Ipomoea hederaceae (IPOHE) were sown in standard soil in pots. […] The test plants were then grown under controlled conditions in the glasshouse (at 24/16° C., day/night; 14 hours light; 65% humidity) and watered twice daily. […]

[8] = test system: Ipomoea hederaceae (IPOHE); experiment: as above
Method: as §2

Solanum nigrum (SOLNI) [9] = experiment: as above
Method: as §2

[10] = test system: Alopecurus myosuroides (ALOMY); experiment: as above
Method: as §2

Setaria faberi (SETFA) [11] = experiment: as above
Method: as §2

[12] = test system: Echinochloa crus-galli (ECHCG); experiment: as above
Method: as §2

[13] = Amaranthus retroflexus, 312 h, rate 1,000 g/ha, read-out: Percentage damage caused to weed species, post-emergence, AMARE
[14] = Echinochloa, 312 h, rate 1,000 g/ha, read-out: Percentage damage caused to weed species, post-emergence, ECHCG
[15] = Ipomoea, 312 h, rate 1,000 g/ha, read-out: Percentage damage caused to weed species, post-emergence, IPOHE
[16] = Solanum nigrum, 312 h, rate 1,000 g/ha, read-out: Percentage damage caused to weed species, post-emergence, SOLNI
[17] = Alopecurus myosuroides, 312 h, rate 1,000 g/ha, read-out: Percentage damage caused to weed species, post-emergence, ALOMY
[18] = Setaria faberi, 312 h, rate 1,000 g/ha, read-out: Percentage damage caused to weed species, post-emergence, SETFA
[19] = Amaranthus retroflexus, 312 h, rate 1,000 g/ha, read-out: Percentage damage caused to weed species, pre-emergence, AMARE
[20] = Ipomoea, 312 h, rate 1,000 g/ha, read-out: Percentage damage caused to weed species, pre-emergence, IPOHE
[21] = Solanum nigrum, 312 h, rate 1,000 g/ha, read-out: Percentage damage caused to weed species, pre-emergence, SOLNI
[22] = Alopecurus myosuroides, 312 h, rate 1,000 g/ha, read-out: Percentage damage caused to weed species, pre-emergence, ALOMY
[23] = Setaria faberi, 312 h, rate 1,000 g/ha, read-out: Percentage damage caused to weed species, pre-emergence, SETFA
[24] = Echinochloa crus-galli, 312 h, rate 1,000 g/ha, read-out: Percentage damage caused to weed species, pre-emergence, ECHCG

SMILES | pest or weed control at 1000 g/ha [1, 13] | pest or weed control at 1000 g/ha [2, 14] | pest or weed control at 1000 g/ha [3, 15] | pest or weed control at 1000 g/ha (Solanum nigrum (SOLNI) [4]; [16]) | pest or weed control at 1000 g/ha [5, 17] | pest or weed control at 1000 g/ha (Setaria faberi (SETFA) [6]; [18]) | pest or weed control at 1000 g/ha [7, 19] | pest or weed control at 1000 g/ha [8, 20] | pest or weed control at 1000 g/ha (Solanum nigrum (SOLNI) [9]; [21]) | pest or weed control at 1000 g/ha [10, 22] | pest or weed control at 1000 g/ha (Setaria faberi (SETFA) [11]; [23]) | pest or weed control at 1000 g/ha [12, 24] | other results
COc1c(Cl)ccc(-c2nc(C(=O)OCC3CCCO3)c3c(C)c[nH]c3n2)c1F (stereo not drawn) [Compound 1-88, 2-(4-Chloro-2-fluoro-3-methoxyphenyl)-5-methyl-4-(tetrahydrofuran-2-yl-methoxycarbonyl)-7H-pyrrolo[2,3-d]pyrimidine] | 50% | 10% | 50% | 70% | 10% | 40% | 10% | 10% | 20% | 0% | 0% | 10% | 
C=C1c2c(nc(-c3ccc(Cl)c(OC)c3F)nc2C(=O)OC)NCC1(C)C [Compound 71-180, 2-(4-Chloro-2-fluoro-3-methoxyphenyl)-6,6-dimethyl-4-methoxycarbonyl-5-methylene-5,6,7,8-tetrahydro-pyrido[2,3-d]pyrimidine] |  |  |  |  |  |  |  |  |  |  |  |  | pest or weed control at 500 g/ha ([1]; Amaranthus retroflexus, 312 h, rate 500 g/ha, read-out: Percentage damage caused to weed species, post-emergence, AMARE): 0%; pest or weed control at 500 g/ha ([2]; Echinochloa, 312 h, rate 500 g/ha, read-out: Percentage damage caused to weed species, post-emergence, ECHCG): 0%; pest or weed control at 500 g/ha ([3]; Ipomoea, 312 h, rate 500 g/ha, read-out: Percentage damage caused to weed species, post-emergence, IPOHE): 40%; pest or weed control at 500 g/ha (Solanum nigrum (SOLNI) [4]; Solanum nigrum, 312 h, rate 500 g/ha, read-out: Percentage damage caused to weed species, post-emergence, SOLNI): 20%; pest or weed control at 500 g/ha ([5]; Alopecurus myosuroides, 312 h, rate 500 g/ha, read-out: Percentage damage caused to weed species, post-emergence, ALOMY): 0%; pest or weed control at 500 g/ha (Setaria faberi (SETFA) [6]; Setaria faberi, 312 h, rate 500 g/ha, read-out: Percentage damage caused to weed species, post-emergence, SETFA): 0%; pest or weed control at 500 g/ha ([7]; Amaranthus retroflexus, 312 h, rate 500 g/ha, read-out: Percentage damage caused to weed species, pre-emergence, AMARE): 0%; pest or weed control at 500 g/ha ([8]; Ipomoea, 312 h, rate 500 g/ha, read-out: Percentage damage caused to weed species, pre-emergence, IPOHE): 0%; pest or weed control at 500 g/ha (Solanum nigrum (SOLNI) [9]; Solanum nigrum, 312 h, rate 500 g/ha, read-out: Percentage damage caused to weed species, pre-emergence, SOLNI): 0%; pest or weed control at 500 g/ha ([10]; Alopecurus myosuroides, 312 h, rate 500 g/ha, read-out: Percentage damage caused to weed species, pre-emergence, ALOMY): 0%; pest or weed control at 500 g/ha (Setaria faberi (SETFA) [11]; Setaria faberi, 312 h, rate 500 g/ha, read-out: Percentage damage caused to weed species, pre-emergence, SETFA): 0%; pest or weed control at 500 g/ha ([12]; Echinochloa crus-galli, 312 h, rate 500 g/ha, read-out: Percentage damage caused to weed species, pre-emergence, ECHCG): 0%
COc1c(Cl)ccc(-c2nc(C(=O)OCc3ccco3)c3c(C)c[nH]c3n2)c1F [Compound 1-87, 2-(4-Chloro-2-fluoro-3-methoxyphenyl)-4-(2-furanyl-methoxycarbonyl)-5-methy-7H-pyrrolo[2,3-d]pyrimidine] |  |  |  |  |  |  |  |  |  |  |  |  | Percentage damage caused to weed species, post-emergence, AMARE ([1]; rate 1,000 g/ha): 100%; Percentage damage caused to weed species, post-emergence, ECHCG ([2]; rate 1,000 g/ha): 0%; Percentage damage caused to weed species, post-emergence, IPOHE ([3]; rate 1,000 g/ha): 50%; Percentage damage caused to weed species, post-emergence, SOLNI (Solanum nigrum (SOLNI) [4]; rate 1,000 g/ha): 90%; Percentage damage caused to weed species, post-emergence, ALOMY ([5]; rate 1,000 g/ha): 0%; Percentage damage caused to weed species, post-emergence, SETFA (Setaria faberi (SETFA) [6]; rate 1,000 g/ha): 10%; Percentage damage caused to weed species, pre-emergence, AMARE ([7]; rate 1,000 g/ha): 10%; Percentage damage caused to weed species, pre-emergence, IPOHE ([8]; rate 1,000 g/ha): 10%; Percentage damage caused to weed species, pre-emergence, SOLNI (Solanum nigrum (SOLNI) [9]; rate 1,000 g/ha): 20%; Percentage damage caused to weed species, pre-emergence, ALOMY ([10]; rate 1,000 g/ha): 0%; Percentage damage caused to weed species, pre-emergence, SETFA (Setaria faberi (SETFA) [11]; rate 1,000 g/ha): 0%; Percentage damage caused to weed species, pre-emergence, ECHCG ([12]; rate 1,000 g/ha): 0%
COc1c(Cl)ccc(-c2nc(C(=O)OC(C)C)c3c(C)c[nH]c3n2)c1F [Compound 1-78, 2-(4-Chloro-2-fluoro-3-methoxyphenyl)-4-isopropoxycarbonyl-5-methyl-7H-pyrrolo[2,3-d]pyrimidine] | 0% | 0% | 70% | 60% | 0% | 0% | 50% | 20% | 40% | 0% | 0% | 0% | 
COC(=O)c1nc(Cl)cc2[nH]cc(C)c12 [Compound 22-124, 6-chloro-4-methoxycarbonyl-3-methyl-1H-pyrrolo[3,2-c]pyridine] | 80% | 20% | 80% | 90% | 30% | 40% | 100% | 100% | 100% | 70% | 30% | 20% | 
COC(=O)c1nc(-c2ccc(Cl)c(OC)c2F)nc2c1c(C)cn2C [Compound 2-64, 2-(4-Chloro-2-fluoro-3-methoxyphenyl)-5,7-dimethyl-4-methoxycarbonyl-7H-pyrrolo[2,3-d]pyrimidine] | 30% | 0% | 40% | 60% | 0% | 0% | 30% | 50% | 40% | 0% | 0% | 0% | 
COC(=O)c1nc(-c2ccc(Cl)c(OC)c2F)nc2[nH]c(C)c(C)c12 [Compound 1-68, 2-(4-Chloro-2-fluoro-3-methoxyphenyl)-5,6-dimethyl-4-methoxycarbonyl-7H-pyrrolo[2,3-d]pyrimidine] | 10% | 10% | 60% | 30% | 0% | 0% | 0% | 0% | 0% | 0% | 0% | 0% | 
COC(=O)c1nc(-c2ccc(Cl)c(N(C)C)c2F)nc2[nH]cc(C)c12 [Compound 1-116, 2-(4-Chloro-3-dimethylamino-2-fluorophenyl)-4-methoxycarbonyl-5-methyl-7H-pyrrolo[2,3-d]pyrimidine] | 50% | 0% | 50% | 40% | 0% | 20% | 0% | 0% | 0% | 0% | 0% | 0% | 
C=CCOC(=O)c1nc(-c2ccc(Cl)c(OC)c2F)nc2[nH]cc(C)c12 [Compound 1-80, 2-(4-Chloro-2-fluoro-3-methoxyphenyl)-5-methyl-4-(prop-2-enyloxycarbonyl)-7H-pyrrolo[2,3-d]pyrimidine] | 60% | 10% | 40% | 80% | 0% | 0% | 0% | 0% | 0% | 0% | 0% | 0% | 
